Reference: publication PMC11303713, “Allosteric inhibition of CFTR gating by CFTRinh-172 binding in the pore” (Nature Communications, 2024)
“Also recorded” adds a separate entry of the source.

Experiments:
[1] = test system: "lock-opened" CFTR with dimerized NBDs; design: method as in Zhou et al., 2002; details: ref Zhou et al., 2002; cited from earlier work
[2] = test system: E1371Q- and W1145Y/E1371Q-CFTR; experiment: Intracellular SCN- blockade, I-V voltage ramps on excised patch; type: cell-based; details: 2 mM or 10 mM cytoplasmic SCN-
From the text: Also, Sonawane and Verkman
(2008), which carried out a structure-activity relationship study, could have been considered to understand whether the moieties of CFTRinh-172 that were found important for inhibitory activity correspond to interactions with specific parts of CFTR protein.
We thank the reviewer for pointing this out. Now, these two papers are both cited, and their contents are incorporated into the 2nd and 10th paragraph of the Discussion.
4) As a control, a CFTR inhibitor having a completely different structure could have been used to check that potency was not affected by mutagenesis.
Most CFTR inhibitors block CFTR pore from the cytoplasmic side in a voltage-dependent manner, such as glibenclamide (Sheppard and Robinson, 1997), NPPB (Walsh et al., 1999), and DNDS (Linsdell and Hanrahan, 1996). Since these CFTR inhibitors likely block the open channel by traveling down the internal vestibule to the narrow region of the pore, the mutations introduced to the Inh-172’s binding site, which is just below the narrow region, would inevitably affect the actions of these CFTR blockers. […]
Comparison of intracellular SCN- blockade on E1371Q- and W1145Y/E1371Q-CFTR. […] Fraction of block was calculated according to the equation “Fraction of block = 1 – (ISCN)/I0” where ISCN and I0 represent the blocked and unblocked current at a given voltage on the same patch. […]

Row | Structure (SMILES) | off-rate [1] | potency of SCN- (fraction of block), E1371Q- vs W1145Y/E1371Q-CFTR [2]
1 | COc1ccc(Cl)cc1C(=O)NCCc1ccc(S(=O)(=O)NC(=O)NC2CCCCC2)cc1 [glibenclamide] | ~ 10 s-1 | 
2 | N#CS [SCN-, thiocyanate] |  | barely affected; also recorded: does not differ
